# Assay results from US20240010998A1, “FLAVONE 4'-O-METHYLTRANSFERASE GENE AND USE FOR SAME” (SUNTORY HOLDINGS LIMITED, priority 2020, published 2024).
# What was measured:
# [1] = Simulation of flavone C-glycoside copigment effect with anthocyanin (malvin): absorption spectrum; assay type: physicochemical; conditions: for Absorption maximum of malvin solution upon addition of flavone C-glycoside (λmax): flavone C-glycoside added at 10-equivalent molar concentration to 0.5 mM malvin
# Procedure: An anthocyanin (malvin) and flavone C-glycoside were prepared to simulate the copigment effect of the flavone C-glycoside on malvin. The malvin (malvidin 3,5-diglucoside) and flavone C-glycosides (isovitexin (apigenin 6-C-glucoside), isoorientin (luteolin 6-C-glucoside) and swertisin (genkwanin 6-C-glucoside) used in the experiments were purchased from Nacalai Tesque, Inc. Embigenin (7,4′-dimethoxyisovitexin) was prepared by artificial organic synthesis from isovitexin. Each flavone C-glycoside (isovitexin, isoorientin, swertisin or embigenin) was added to the malvin at 10-equivalent molar concentration in a buffering solution at pH 5.0, and the absorption spectrum was measured. The malvin concentration was 0.5 mM.
# DN144 (IjFn-4′OMT) = assay: Enzyme activity measurement with crude protein solution extract from E. coli expressing DN144; assay type: biochemical, fringed iris (Iris japonica); conditions: flavone substrate; for Produced compound: SAM, 30 minutes at 30° C., HPLC detection at 330 nm
# Procedure: With DN144 as a candidate protein having activity of transferring a methyl group to the 4′-position hydroxyl group of flavone C-glycoside, and using pET15b (Novagen), an E. coli expression vector pSPB7942 containing the full-length of DN144 was constructed according to the manufacturer's recommended protocol.
# Vector pSPB7942 was introduced into E. coli BL21(DE3) (New England Biolabs Japan Inc) by the manufacturer's recommended protocol, to obtain E. coli transformants. The E. coli were cultured using an Overnight Express Autoinduction System 1 (Novagen), according to the manufacturer's recommended protocol. The E. coli transformants were cultured at 37° C. (approximately 4 hours) with 2 mL of prepared culture solution, to an OD600 value of 0.5. The E. coli solution was added as a preculturing solution to 50 mL of culture solution, and main culturing was carried out for two nights at 16° C. The E. coli solution cultured for two nights was centrifuged (3,000 rpm, 4° C., 15 minutes), and the collected cells were suspended in sonic buffer (composition: 40 mM KPB (pH7.5), 1 mM dithiothreitol. 50 μM amidinophenylmethanesulfonyl fluoride hydrochloride, 500 μM ethylenediaminetetraacetic acid. 2 mM MgCl2, 1 μM S-adenosylmethionine (SAM)). A 5 mL portion of sonic buffer was added for each 1 g of E. coli. The suspended E. coli cells were crushed by ultrasonic treatment and then centrifuged (15,000 rpm, 4° C., 10 minutes), and the supernatant was recovered. The supernatant was used as a crude protein solution extract from E. coli expressing DN144. A TOMY MX-307 (rotor: AR015-24) was used for centrifugal separation (Tomy Seiko Co., Ltd.).
# The substrates used for activity measurement were apigenin, apigenin 7-glucoside, isovitexin 2″-rhamnoside, saponarin (isovitexin 4′-glucoside), swertisin, luteolin, luteolin 7-glucoside, isoorientin, swertiajapanin (isoorientin 7-methyl ether), delphinidin 3-glucoside, delphinidin 3,5-diglucoside and malvidin 3,5-diglucoside. A mixture of 8 μL of each 1 mM substrate (50% acetonitrile aqueous solution containing 0.1% TFA), 20 μL of 10 mM SAM, 10 μL of 1 M KPB (pH 7.5) and 20 μL of 10 mM MgCl2 adjusted to 58 μL was kept at 30° C. for 10 minutes, and then 42 μL of crude protein solution extract from DN144-expressing E. coli was added for enzyme reaction (30 minutes at 30° C.). Next, 100 μL of stop buffer (aqueous 90% acetonitrile solution containing TFA) was added to stop the enzyme reaction, and the enzyme reaction solution was analyzed by high-performance liquid chromatography (LC-2030C by Shimadzu Corp.). Detection was at 330 nm using a Shimadzu PDA SPD-M20A as the detector. The column used as a Shim-Pack FC-ODS 150 mm*4.6 min (Shimadzu GLC). Elution was performed using solution A (0.1% TFA aqueous solution) and solution B (aqueous 90% acetonitrile solution containing 0.1% TFA). The elution was with a 20-minute linear concentration Gradient from a 9:1 mixture to a 8:2 mixture, a 15-minute linear concentration gradient from a 8:2. mixture to a 2:8 mixture and a 5-minute linear concentration gradient from a 2:8 mixture to a 0:10 mixture, followed by elution with a 0:10 mixture for 1 minute. The flow rate was 0.6 mL/min. As a control, the same experiment was carried out using a crude protein solution extract from E. coli in which pET15b vector without the insert had been introduced. As a result, compounds were detected in the enzyme reaction solutions obtained by reacting the 10 different flavones with the crude protein solution extract from the DN144-expressing E. coli. […] With reaction of the 3 different anthocyanins, no peaks were detected other than for the substrates in the enzyme reaction solution. When enzyme reaction was conducted using an anthocyanin substrate, the enzyme reaction conditions were 30° C., 15 minutes, and an aqueous 90% acetonitrile solution containing 0.1% TFA and 0.24 N hydrochloric acid was used as the stop buffer. […]
Absorption maximum of malvin solution upon addition of flavone C-glycoside (λmax) ([1]; buffering solution pH 5.0) [nm],Compound,Methyltransferase activity of DN144 for the substrate (DN144 (IjFn-4′OMT)),further results
581,"COc1ccc(-c2cc(=O)c3c(O)c([C@@H]4O[C@H](CO)[C@@H](O)[C@H](O)[C@H]4O)c(OC)cc3o2)cc1 [Embigenin, 7,4′-dimethoxyisovitexin]",–,"Copigment effect with respect to malvin (absorbance increase, shift of absorption maximum toward long wavelength end) ([1]; 10-equivalent flavone C-glycoside, 0.5 mM malvin, pH 5.0): highest copigment effect"
575,"O=c1cc(-c2ccc(O)c(O)c2)oc2cc(O)c([C@@H]3O[C@H](CO)[C@@H](O)[C@H](O)[C@H]3O)c(O)c12 [Isoorientin, luteolin 6-C-glucoside]",strong methyltransferase activity,–
578,"O=c1cc(-c2ccc(O)cc2)oc2cc(O)c([C@@H]3O[C@H](CO)[C@@H](O)[C@H](O)[C@H]3O)c(O)c12 [Isovitexin, apigenin 6-C-glucoside]",–,Produced compound (DN144 (IjFn-4′OMT)): Isocytisoside; Produced compound (DN144 (IjFn-4′OMT); listed as isovitexin): conversion to isocytisoside was confirmed
–,"COc1cc(-c2[o+]c3cc(O)cc(O[C@@H]4O[C@H](CO)[C@@H](O)[C@H](O)[C@H]4O)c3cc2O[C@@H]2O[C@H](CO)[C@@H](O)[C@H](O)[C@H]2O)cc(OC)c1O [Malvin, malvidin 3,5-diglucoside]",–,"Absorption maximum of malvin solution (λmax) ([1]; malvin alone, 0.5 mM, buffering solution pH 5.0): 529 nm"
–,"COc1cc2oc(-c3ccc(O)c(O)c3)cc(=O)c2c(O)c1[C@@H]1O[C@H](CO)[C@@H](O)[C@H](O)[C@H]1O [Swertiajaponin, luteolin 7-methyl-6-C-glucoside]",strong methyltransferase activity,–
–,isovitexin 2″-rhamnoside,strong methyltransferase activity,–

Compound,Absorption maximum of malvin solution upon addition of flavone C-glycoside (λmax) ([1]; buffering solution pH 5.0) [nm],Methyltransferase activity of DN144 for the substrate (DN144 (IjFn-4′OMT)),further results
"COc1cc2oc(-c3ccc(O)cc3)cc(=O)c2c(O)c1[C@@H]1O[C@H](CO)[C@@H](O)[C@H](O)[C@H]1O [Swertisin, genkwanin 6-C-glucoside]",579,–,Produced compound (DN144 (IjFn-4′OMT)): Embigenin; Produced compound (DN144 (IjFn-4′OMT); listed as swertisin): conversion to embigenin was confirmed
